Assay results as given in publication PMC4784888, “Activity Based High-Throughput Screening for Novel O-GlcNAc Transferase Substrates Using a Dynamic Peptide Microarray” (PLoS ONE, 2016).
Blank lines part the entries; values can stand above or below the substance they belong to. Where no end group is shown, it is not given here.

What was measured:
Type in all cases: biochemical, human
[1] = tested on: purified m-OGT; assay: Ala scan of RBL-2_410–422 on peptide microarray; settings: 0.2 μg/μL purified m-OGT, 1 mM UDP-GlcNAc; for OGT activity against RBL-2_410–422 Ala mutants (in words): extra CG at NH2 terminal
Description: (§1) One step OGT purification was performed using His60 Ni Gravity Flow Columns (Clontech) according to the manufacturer’s instructions. Briefly, the nickel column was equilibrated with a buffer containing 50 mM sodium phosphate, 300 sodium chloride, 20 mM imidazole, and pH 7.4, followed by incubation with cell lysate containing His tag OGT for 1h at 4°C. After washing several times using buffer containing 50 mM sodium phosphate, 300 sodium chloride, 40 mM imidazole, and pH 7.4, the recombinant OGT was eluted using elution buffer containing 50 mM sodium phosphate, 300 mM sodium chloride, 300 mM imidazole, and pH 7.4. The eluted fraction was concentrated through a 100,000 Da molecular weight cut off Amicon unit by centrifugation 10 min at 5000 RPM at 4°C.
(§2) Peptide O-GlcNAcylation was assessed using PamChip 4 microarray chips with a PamStation 12 instrument (Pamgene international, The Netherlands). The OGT enzyme reaction was prepared essentially as described[26] with minor modifications. Briefly, before addition of the enzyme reaction, the microarray was blocked with blocking buffer (1% BSA in TBS). After 30 cycles (2 cycles/min) blocking, the blocking buffer was aspirated and the microarray was incubated with 40 μL of the enzyme reaction containing OGT (lysate or purified), OGT reaction buffer (50 mM Tris—HCl, pH 7.5;1 mM DTT;12.5 mM MgCl2), a 1:1 pre-incubated mixture of anti-O-GlcNAc and FITC conjugated secondary antibody, and the sugar donor UDP-GlcNAc or water as a control for 480 cycles (2 cycles/min) at 30°C. The microarray was run in parallel by pumping the reaction up and down through the porous membrane at every cycle and a tiff image was obtained at every 20 cycles by a CCD camera inside the PamStation. O-GlcNAcylation of each peptide was detected by a fluorescent signal which was produced by an FITC conjugated antibody bound to the O-GlcNAc moiety on the peptide.
(§3) Image analysis was performed using BioNavigator 6 software (Pamgene international, The Netherlands). Briefly, each image was quantified by automated array grid finding and subsequent quantification of signal and local background for each individual spot. In this work, the signal median-minus-background value was used as the quantitative parameter for the O-GlcNAcylation of the peptide.
Synthesis of all the peptides was achieved by following a standard Fmoc SPPS strategy on a Symphony Multiple Peptide Synthesizer and starting from rink amide resin. The following Fmoc amino acids were used: Fmoc-Cys(Trt)-OH, Fmoc-Gly-OH, Fmoc-Lys(Boc)-OH, Fmoc-Glu(Otbu)-OH, Fmoc-Asn(Trt)-OH, Fmoc-Ser(tBu)-OH, Fmoc-Thr(tBu)-OH, Fmoc-Ala-OH, Fmoc-Pro-OH, Fmoc-Val-OH. Deprotection was performed using 20% piperidine in DMF, and coupling was performed using 1:0.9:2 amino acid/ HBTU/DIPEA in DMF. After completion of the synthesis, the protected peptidyl resins were incubated with a 10 mL mixture of TFA (trifluoroacetic acid): H2O: triisopropylsilane (TIPS): 1, 2-ethanedithiol (EDT) (9:0.5:0.25:0.25, v/v/v/v) and allowed to stir for 2 h at room temperature under a nitrogen atmosphere. The cleaving mixture was filtered and the resin was washed with TFA (2 mL) and DCM (4 mL). The residue was precipitated by treatment of precooled diethyl ether and centrifugation. Two times washing and centrifugation yielded the crude products in a pellet. The precipitated peptides were dissolved in water, frozen, and lyophilized. All products were stored at -20°C. Crude peptide analysis was carried out by LC-MS.
To further confirm this and investigate the role of this and surrounding amino acid residues in our activity based assay, we resynthesized the RBL-2 peptide present on the microarray and performed an Ala scan, thus replacing of all the possible O-GlcNAc sites (Ser and Thr) in RBL-2_420–422 (Fig 4A). To immobilize the peptides on the chip, all the peptides were prepared with an extra CG at the NH2 terminal to allow immobilization on the maleimide-based chip surface. […]

[2] = tested on: m-OGT; assay: UDP-Glo assay of RBL-2_410–422 peptides
Description: as §1
In this work OGT activity was also determined using UDP-Glo™ Glycosyltransferase Assay according to the manufacturer’s instructions. This assay evaluates O-GlcNAcylation through monitoring UDP formation in glycosyltransferase reactions by luminescence. Briefly, OGT reactions were carried out in 100 μL final volume containing 0.5 mM UDP-GlcNAc, 6 μg purified/60 μg lysate enzyme, 100 μM peptide in OGT reaction buffer (50 mM Tris—HCl, pH 7.5;1 mM DTT;12.5 mM MgCl2). Reactions were incubated at room temperature for 2h. At the end of that period, each reaction was transferred in triplicate into a 96-well white microplate and was mixed with a 1:1 ratio of UDP-Glo Detection Reagent. After incubation at room temperature for 1h, the luminescence was recorded with a Mithras LB940 Multimode microplate reader using Mikro Win 2000 software (Berthold Technology, Germany).
To further confirm this and investigate the role of this and surrounding amino acid residues in our activity based assay, we resynthesized the RBL-2 peptide present on the microarray and performed an Ala scan, thus replacing of all the possible O-GlcNAc sites (Ser and Thr) in RBL-2_420–422 (Fig 4A). To immobilize the peptides on the chip, all the peptides were prepared with an extra CG at the NH2 terminal to allow immobilization on the maleimide-based chip surface. Cys 415 was replaced by an Ala to avoid cyclisation by disulfide bond formation or dual modes of immobilization (S2 Fig). […] The mutants T421A decreased the O-GlcNAcylation of RBL-2_420–422 peptide by 40% compared to the control (wild type with C415A). […] In addition, OGT activity against these peptides was further validated using the UDP-Glo assay, which measures the amount of UDP produced when GlcNAc is transferred from UDP-GlcNAc to the sugar accepting peptide. […] This might be because the UDP assay is more sensitive than the antibody-based detection.
Fig 4 S420A is a possible O-GlcNAc site in the RBL-2 protein. A, peptide mutant used for an Ala scan. For immobilization purposes, peptides were prepared with an extra CG at the N-terminus and Cys 415 was replaced by Ala. B, OGT activity against RBL-2_410–422 peptide mutants was determined using peptide microarray analysis with 0.2 μg/μL purified m-OGT and 1 mM UDP-GlcNAc. C, UDP-Glo assay was used to measure O-GlcNAcylation of RBL-2_410–422 peptide mutants as well. D, kinetic signals from the same microarray experiment of panel B are shown.
O-GlcNAcylation of wild type RBL-2-410-422 and C415A peptide was determined using both the UDP assay(A) and the microarray assay (B) with 1 mM UDP-GlcNAc and 0.2 μg/μL purified m-OGT. […] (TIF) Click here for additional data file.

[3] = tested on: purified m-OGT; assay: Inhibition of OGT activity by RBL-2_S420A 410–422 peptide on nuclear receptor interaction peptide microarray; settings: purified m-OGT (0.2 μg/μL), UDP-GlcNAc 0.5 mM; for inhibition of OGT activity (in words): peptide 0.5 mM
Description: as §1, §2, §3
We then used the identified substrate sequence as a starting point towards the discovery of novel selective OGT inhibitors. […] To test it, we determined its inhibitory effect on the O-GlcNAcylation of two OGT substrates identified in our work and a known OGT inhibitor was used as a positive control.
Fig 5 The RBL-2_S420A 410–422 peptide inhibited OGT activity. The inhibitory effect of RBL-2_S420A 410–422 peptide on OGT activity was determined on the nuclear receptor interaction peptide microarray. […]

[4] = microarray, control wild type with C415A
[5] = UDP-Glo, luminescence, 0.5 mM UDP-GlcNAc, 6 μg purified enzyme, 100 μM peptide, 50 mM Tris-HCl pH 7.5, room temperature 2 h, triplicate

Substance: T421A: Ala scan mutant of RBL-2_410–422 (CGKENSPAVTPVSAA-NH2)
decrease of O-GlcNAcylation compared to control [1, 4]: 40%
O-GlcNAcylation activity in solution (in words) [2, 5]: consistent with the microarray results

inhibition of O-GlcNAcylation of NCOA6 ([3]; 500 μM S420A peptide, NCOA6_1479–1501 substrate): 50%
inhibition of O-GlcNAcylation of WIPI 1 ([3]; 500 μM S420A peptide, WIPI 1 substrate): 50%
inhibition of OGT activity (in words) ([3]; listed as RBL-2_S420A 420–422): significant inhibition of OGT activity
Substance: RBL-2_S420A 410–422: S420A mutation peptide of RBL-2 410–422 tested as OGT inhibitor (CGKENSPAVTPVATA-NH2)
inhibition of OGT activity (in words) [3]: still binds to the OGT active site and therefore inhibited OGT activity

Substance: S420A: Ala scan mutant of RBL-2_410–422 (CGKENSPAVTPVATA-NH2)
OGT activity against RBL-2_410–422 Ala mutants (in words) [1, 4]: complete loss of OGT activity
O-GlcNAcylation activity in solution (in words) [2, 5]: consistent with the microarray results

Substance: S413A: Ala scan mutant of RBL-2_410–422
OGT activity against RBL-2_410–422 Ala mutants (in words) [1, 4]: did not show any effect
O-GlcNAcylation activity in solution (in words) [2, 5]: consistent with the microarray results

Substance: C415A: RBL-2_410–422 peptide with Cys 415 replaced by an Ala (CGKENSPAVTPVSTA-NH2; UniProt Q08999 410-422, looked up, variant C415A)
C415A effect on O-GlcNAcylation, overall statement ([1]; UDP assay and microarray): modest effect on O-GlcNAcylation
OGT activity of C415A compared with wild type, UDP assay ([2]; UDP assay, 1 mM UDP-GlcNAc, 0.2 μg/μL purified m-OGT): modest increase in OGT activity

Substance: T417A: Ala scan mutant of RBL-2_410–422 (CGKENSPAVAPVSTA-NH2)
OGT activity against RBL-2_410–422 Ala mutants (in words) [1, 4]: complete loss of OGT activity
remaining O-GlcNAcylation [2, 5]: 20%
